This note sets out measurements from PMC10648875 (Antimicrobial Agents and Chemotherapy, 2023).

The test system of assay [1] is K. pneumoniae ATCC BAA-2814 (KP1074), KPC-3. Nature of the assay: MIC, reference strain. Format: cell-based. To be noted: Klebsiella pneumoniae, ATCCBAA2814; KPC-3; BLI at the fixed concentration in brackets; read-out: MIC. The protocol:
(§1) Other BL/BLI combinations were tested at their recommended BLI concentrations. MIC values for the partner antibiotics and BLIs alone were also determined (Table 2; Table S1). All investigational and marketed BLIs enhanced the potency of antibiotics according to their spectrum of inhibition. MIC values against CLSI-approved QC strains were within acceptable ranges for drugs and combinations tested (Table 3).
(§2) Isolates were tested for antimicrobial susceptibility using the broth microdilution methodology per CLSI M07 (2018) guidelines ([40]). JMI Laboratories produced frozen-form 96-well panels with cation-adjusted Mueller-Hinton broth as the testing medium. Current CLSI quality assurance practices were followed when performing the susceptibility tests. MIC values were validated by concurrently testing the following CLSI-recommended ([27]) QC reference strains: E. coli NCTC 13353 (CTX-M-15), Klebsiella pneumoniae ATCC BAA-2814 (KPC-3), Klebsiella pneumoniae ATCC BAA-1705 (KPC-2), and K. pneumoniae ATCC 700603 (SHV-18). The inoculum density during susceptibility testing was monitored by bacterial colony counts. Where applicable, QC ranges for tested reference strains were those approved or published by the CLSI ([27]).

In assay [2] the test system is K. pneumoniae ATCC BAA-1705 (KPM1123), KPC-2. Nature of the assay: MIC, reference strain. Type of assay: cell-based. To be noted: Klebsiella pneumoniae, ATCCBAA1705; KPC-2; BLI at the fixed concentration in brackets; read-out: MIC. The method, then:
as §1, §2

Assay [3] concerns E. coli CDC 0069 (EC1106), NDM-1. In words: MIC, reference strain. Type of assay: cell-based. Particulars: Escherichia coli, BLI at the fixed concentration in brackets, read-out: MIC. The method, then: as §1, §2
Assay [4] concerns K. pneumoniae CDC 0135 (KP1291), VIM-1. In words: MIC, reference strain. Format: cell-based. To be noted: Klebsiella pneumoniae, BLI at the fixed concentration in brackets, read-out: MIC. The protocol: as §1, §2
For assay [5], the system named is Klebsiella pneumoniae ATCC 700603 (KPM2881), SHV-18. Nature of the assay: MIC, reference strain. Type of assay: cell-based. To be noted: Klebsiella pneumoniae, ATCC700603; SHV-18; BLI at the fixed concentration in brackets; read-out: MIC. The method, then:
as §1, §2

Another assay addresses IMP-1 (Serratia marcescens, UniProt P52699). In words: Ki of metallo-β-lactamase inhibition, purified enzyme. Type of assay: biochemical. The protocol:
(§3) The majority of purified β-lactamase enzymes used in the study were either expressed and purified internally ([35]) or obtained from Emerald Biostructures (Bainbridge Island, WA, USA). L1 enzyme was purified as described in reference ([36]).
(§4) Enzymes were mixed with BLIs at concentrations varying from 160 to 0.0027 µM in 50-mM Na-phosphate pH7.0, 0.1-mg/mL bovide serum albumin (BSA) (buffer A; 20-µM ZnCl2 was also added for all metalloenzymes) and incubated for 10 minutes at 37°C. Nitrocefin (50 µM) (10 µM for SHV-12) or 100 µM of imipenem (prewarmed at 37°C for 10 minutes) was added, and substrate cleavage profiles were recorded at 37°C at 490 nm every 10 seconds for 10 minutes or at 294 nm every 30 seconds for 1 hour for nitrocefin and imipenem, respectively. […] Ki app values (Ki for metalloenzymes) were calculated by the method of Waley ([37]).

A further assay concerns the target SHV-12 (Klebsiella pneumoniae, UniProt P0AD64, E235K/G234S/L31Q). Nature of the assay: Ki app of β-lactamase inhibition, purified enzyme. Type of assay: biochemical. The method, then:
as §3, §4

The subject of assay [6] is Escherichia coli NCTC 13353 (ECM7514), CTX-M-15. Nature of the assay: MIC, reference strain. To be noted: Escherichia coli, NCTC13353. Format: cell-based. The protocol:
as §1
as §2, with “([27]). Meropenem was purchased from Carbosynth; ceftolozane was synthesized at Acme Bioscience, Palo Alto, CA, USA; all other antibiotics were from Sigma Aldrich. Xeruborbactam was synthesized at Qpex Biopharma, San Diego, CA, USA. Avibactam was purchased from eNovation, Chemicals LLC, Bridgewater, NJ, USA. Vaborbactam was synthesized at The Medicines Company, San Diego, CA. Relebactam, taniborbactam, and […] were synthesized at Acme Bioscience.” for “([27]).”

Assay [7] has as its system P. aeruginosa BAA-3197 (PA5257), KPC-2. Nature of the assay: MIC, reference strain. Format: cell-based. To be noted: Pseudomonas aeruginosa, BAA3197; KPC-2; BLI at the fixed concentration in brackets; read-out: MIC.
In a further assay the target is VIM-1 (Pseudomonas aeruginosa, UniProt A0A0F7KYQ8). In words: Ki of metallo-β-lactamase inhibition, purified enzyme. To be noted: 10-minute preincubation; nitrocefin substrate. Type of assay: biochemical. The method, then:
as §3, §4

In a further assay the target is CTX-M-14 (Escherichia coli, UniProt Q9L5C7). Nature of the assay: Ki app of β-lactamase inhibition, purified enzyme. Type of assay: biochemical. Particulars: 10-minute preincubation; nitrocefin substrate. The method, then:
as §3, §4

Another assay deals with CTX-M-15 (Escherichia coli, UniProt Q9EXV5). In words: Ki app of β-lactamase inhibition, purified enzyme. Format: biochemical. Particulars: 10-minute preincubation; nitrocefin substrate. The protocol:
as §3, §4

For a further assay, the target named is P99 (Enterobacter cloacae, UniProt P05364). Nature of the assay: Ki app of β-lactamase inhibition, purified enzyme. Type of assay: biochemical. The method, then:
as §3, §4

For another assay, the target named is NDM-1 (Klebsiella pneumoniae, UniProt C7C422). In words: biochemical. The protocol: as §3, §4
Sequence of NDM-1 (C7C422 29-270 limits assumed): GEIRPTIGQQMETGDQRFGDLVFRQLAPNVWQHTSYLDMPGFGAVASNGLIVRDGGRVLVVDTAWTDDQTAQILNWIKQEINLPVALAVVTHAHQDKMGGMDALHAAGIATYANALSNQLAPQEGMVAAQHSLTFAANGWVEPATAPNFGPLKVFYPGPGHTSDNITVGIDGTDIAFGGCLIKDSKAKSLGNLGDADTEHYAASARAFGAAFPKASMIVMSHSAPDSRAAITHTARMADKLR
Assay [8] deals with ESBL-producing and carbapenem-resistant Enterobacterales (All, N = 1028). Nature of the assay: organism not typed. Particulars: All (N = 1028); xeruborbactam and vaborbactam fixed 8 mg/L, all other BLIs 4 mg/L. Format: cell-based.
Assay [9] concerns ESBL-producing Enterobacterales. In words: organism not typed. To be noted: ESBL (N = 521); xeruborbactam and vaborbactam fixed 8 mg/L, all other BLIs 4 mg/L. Format: cell-based.
Assay [10] relates to carbapenem-resistant Enterobacterales (subset of 507 isolates). In words: organism not typed. Format: cell-based. To be noted: xeruborbactam and vaborbactam fixed 8 mg/L, all other BLIs 4 mg/L.
The target of a further assay is OXA-23 (Acinetobacter baumannii, UniProt Q9L4P2). In words: Ki app of β-lactamase inhibition, purified enzyme. Format: biochemical. To be noted: 10-minute preincubation; nitrocefin substrate. The method, then:
as §3, §4

The next assay addresses KPC-2 (Klebsiella pneumoniae, UniProt Q9F663). Nature of the assay: Ki app of β-lactamase inhibition, purified enzyme. Type of assay: biochemical. To be noted: 10-minute preincubation; nitrocefin substrate. The method, then: as §3, §4
The next assay addresses OXA-48 (Klebsiella pneumoniae, UniProt Q6XEC0). Nature of the assay: Ki app of β-lactamase inhibition, purified enzyme. To be noted: 10-minute preincubation; nitrocefin substrate. Type of assay: biochemical, Enterobacterales. The protocol:
as §3, §4

The mark [11] stands for this setting: 10-minute preincubation, nitrocefin substrate, read-out: Ki app.
Where [12] appears, read: CTX-M-15, BLI at the fixed concentration in brackets, read-out: MIC.

SMILES strings stand for the structures. ≈ marks a conversion by molar mass, not a printed value. Where two headings read alike, the source gives them in different places.

Sequence of P99 (P05364 21-381): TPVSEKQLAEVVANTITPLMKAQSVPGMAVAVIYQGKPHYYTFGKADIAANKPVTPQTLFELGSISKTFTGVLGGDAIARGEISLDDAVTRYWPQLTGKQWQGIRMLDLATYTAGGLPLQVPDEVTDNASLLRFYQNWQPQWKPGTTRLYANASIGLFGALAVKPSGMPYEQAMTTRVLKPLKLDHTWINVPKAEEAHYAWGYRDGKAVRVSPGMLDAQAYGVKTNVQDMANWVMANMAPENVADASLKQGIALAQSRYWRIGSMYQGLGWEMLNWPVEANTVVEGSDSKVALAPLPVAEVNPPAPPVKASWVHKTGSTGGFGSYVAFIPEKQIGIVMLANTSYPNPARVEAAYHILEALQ
Sequence of CTX-M-14 (Q9L5C7 entry or part of it): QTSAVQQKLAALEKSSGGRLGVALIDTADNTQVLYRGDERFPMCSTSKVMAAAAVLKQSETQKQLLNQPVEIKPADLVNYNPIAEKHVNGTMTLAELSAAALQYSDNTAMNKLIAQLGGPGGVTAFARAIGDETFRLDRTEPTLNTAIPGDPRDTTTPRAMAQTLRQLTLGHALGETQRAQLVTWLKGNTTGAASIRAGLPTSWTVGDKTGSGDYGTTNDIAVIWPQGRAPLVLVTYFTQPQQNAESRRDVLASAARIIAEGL
Sequence of SHV-12 (P0AD64 22-286 L31Q/G234S/E235K): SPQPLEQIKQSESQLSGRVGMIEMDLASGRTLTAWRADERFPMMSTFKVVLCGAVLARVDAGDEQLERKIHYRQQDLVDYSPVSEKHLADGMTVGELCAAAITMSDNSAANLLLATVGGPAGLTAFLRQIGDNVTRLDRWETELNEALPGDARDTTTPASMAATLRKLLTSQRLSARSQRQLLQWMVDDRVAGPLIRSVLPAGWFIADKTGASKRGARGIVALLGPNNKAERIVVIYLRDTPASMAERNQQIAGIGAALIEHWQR
Sequence of CTX-M-15 (Q9EXV5 entry or part of it): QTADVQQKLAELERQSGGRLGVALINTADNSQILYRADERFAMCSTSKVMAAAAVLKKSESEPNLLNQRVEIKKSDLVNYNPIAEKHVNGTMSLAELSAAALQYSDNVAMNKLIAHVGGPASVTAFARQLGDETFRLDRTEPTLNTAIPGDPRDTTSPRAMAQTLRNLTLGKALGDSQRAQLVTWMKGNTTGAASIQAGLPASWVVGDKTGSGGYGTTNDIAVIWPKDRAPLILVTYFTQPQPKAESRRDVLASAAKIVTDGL
Sequence of IMP-1 (P52699 19-246 limits assumed): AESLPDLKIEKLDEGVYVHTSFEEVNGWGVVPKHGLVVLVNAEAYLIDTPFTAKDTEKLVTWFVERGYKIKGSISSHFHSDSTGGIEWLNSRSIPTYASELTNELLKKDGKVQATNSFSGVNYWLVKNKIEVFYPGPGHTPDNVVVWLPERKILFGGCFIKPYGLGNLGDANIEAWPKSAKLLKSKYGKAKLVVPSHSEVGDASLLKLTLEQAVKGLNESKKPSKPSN
Sequence of OXA-23 (Q9L4P2 18-273): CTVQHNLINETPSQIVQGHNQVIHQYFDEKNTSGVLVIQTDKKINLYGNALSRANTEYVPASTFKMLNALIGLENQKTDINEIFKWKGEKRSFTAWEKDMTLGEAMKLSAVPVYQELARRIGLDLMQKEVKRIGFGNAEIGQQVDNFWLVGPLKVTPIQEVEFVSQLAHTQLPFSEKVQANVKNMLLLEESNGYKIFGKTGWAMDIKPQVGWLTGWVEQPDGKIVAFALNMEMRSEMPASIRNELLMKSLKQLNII
Sequence of OXA-48 (Q6XEC0 23-265 limits assumed): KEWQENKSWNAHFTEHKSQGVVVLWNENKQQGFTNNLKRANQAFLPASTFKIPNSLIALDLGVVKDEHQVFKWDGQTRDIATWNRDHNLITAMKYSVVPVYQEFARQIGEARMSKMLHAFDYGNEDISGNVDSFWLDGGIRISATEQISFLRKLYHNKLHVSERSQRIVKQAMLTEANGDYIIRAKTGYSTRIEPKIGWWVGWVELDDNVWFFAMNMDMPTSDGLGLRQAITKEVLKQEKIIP
Sequence of KPC-2 (Q9F663 25-293 limits assumed): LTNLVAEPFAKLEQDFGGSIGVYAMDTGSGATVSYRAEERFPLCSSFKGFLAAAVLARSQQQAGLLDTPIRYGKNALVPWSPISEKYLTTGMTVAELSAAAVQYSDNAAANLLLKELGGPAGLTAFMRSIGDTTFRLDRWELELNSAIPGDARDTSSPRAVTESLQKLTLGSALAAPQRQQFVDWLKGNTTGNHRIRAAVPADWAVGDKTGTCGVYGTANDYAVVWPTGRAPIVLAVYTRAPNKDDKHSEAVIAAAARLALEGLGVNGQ

Consider `O=C(O)C[C@@H]1CC[C@H](NC(=O)Cc2cccs2)B(O)O1` [Vaborbactam, vaborbactam], for which the minimum inhibitory concentration (MIC) in assay [1], in [2], in [3], in [4], in assay [5] and in assay [6] (setting [12]) was greater than 64 mg/L throughout. The MIC in [7] is greater than 64 mg/L. In addition, the Ki at IMP-1 is greater than 160 µM; at SHV-12 (setting [11]) it was 0.021 ± 0.004 µM.

With `O=C(NC1CCNCC1)[C@@H]1CC[C@@H]2CN1C(=O)N2OS(=O)(=O)O` [Relebactam, relebactam], the MIC in assay [1], in [2], in [3], in assay [4], in assay [5] and in assay [6] (setting [12]) was greater than 64 mg/L throughout. For the same compound, the MIC in assay [7] was greater than 64 mg/L. Also, the Ki is greater than 160 µM at IMP-1; greater than 160 µM on VIM-1; 0.01 ± 0.003 µM on CTX-M-14; 0.024 ± 0.001 µM on CTX-M-15; 0.036 ± 0.006 µM on SHV-12; 0.014 ± 0.002 µM at P99 (setting [11]). The compound further displayed a Ki on NDM-1 greater than 160 µM.

Consider `CC(C)(O/N=C(\C(=O)N[C@@H]1C(=O)N2C(C(=O)[O-])=C(C[n+]3ccccc3)CS[C@H]12)c1csc(N)n1)C(=O)O` [CAZ, ceftazidime], for which the MIC in [1] is greater than 64 mg/L; in assay [2], 64 mg/L; in assay [3] it was greater than 64 mg/L; in assay [4], greater than 64 mg/L; in [5], 16 mg/L; in [6] (setting [12]), 64 mg/L. Also, the MIC in assay [7] is greater than 64 mg/L.

With `C[C@@H](O)[C@H]1C(=O)N2C(C(=O)O)=C(SCCN=CN)C[C@H]12` [IMP, imipenem], the MIC in assay [1] worked out at 64 mg/L; in assay [2] it was 8 mg/L; in [3], 16 mg/L; in assay [4], 8 mg/L; in assay [5], 0.06 mg/L; in assay [6] it was 0.125 mg/L. Further, the MIC in assay [7] was greater than 64 mg/L.

Turning to `NC(=O)[C@@H]1CC[C@@H]2CN1C(=O)N2OS(=O)(=O)O` [Avibactam, avibactam], the MIC is 64 mg/L in assay [1]; 16 mg/L in assay [2]; 8 mg/L in assay [3]; greater than 64 mg/L in assay [4]; 32 mg/L in assay [5]; 16 mg/L in assay [6] (setting [12]). For the same compound, in assay [7], the MIC was greater than 64 mg/L. The Ki on IMP-1 was greater than 160 µM; at VIM-1 it was greater than 160 µM; at CTX-M-14, 0.00041 ± 0.00013 µM; on CTX-M-15, 0.00018 ± 8e-05 µM; at SHV-12 it was 0.00024 ± 7e-05 µM; on P99 (Ki app), 0.01 ± 0.002 µM. Further, on NDM-1, the Ki was greater than 160 µM.

Take `Cn1c(N)c(NC(=O)NCCN)c[n+]1CC1=C(C(=O)O)N2C(=O)[C@@H](NC(=O)/C(=N\OC(C)(C)C(=O)[O-])c3nsc(N)n3)[C@H]2SC1` [TOL, ceftolozane]: the MIC in assay [1] is greater than 64 mg/L; in [2], 64 mg/L; in assay [3], greater than 64 mg/L; in assay [4], greater than 64 mg/L; in assay [5] it was 8 mg/L; in [6] (setting [12]) it was greater than 64 mg/L. In addition, the MIC in assay [7] worked out at 32 mg/L (≈ 48 µM).

Regarding `C[C@@H](O)[C@H]1C(=O)N2C(C(=O)O)=C(S[C@@H]3CN[C@H](C(=O)Nc4cccc(C(=O)O)c4)C3)[C@H](C)[C@H]12` [ETP], the MIC50 was 4 mg/L in assay [8]; 0.06 mg/L in [9]; greater than 32 mg/L in [10] (CRE (N = 507)); greater than 32 mg/L in assay [10] (KPC (N = 193)); greater than 32 mg/L in [10] (MBL (N = 168)); greater than 32 mg/L in assay [10] (Non-CP CRE (N = 50)). Also, in [10] (OXA-48-like (N = 96)), the MIC50 is greater than 32 mg/L. Also, the MIC90 in [8] is greater than 32 mg/L; in [9] it was 0.5 mg/L; in [10] (CRE (N = 507)), greater than 32 mg/L; in assay [10] (KPC (N = 193)) it was greater than 32 mg/L; in assay [10] (MBL (N = 168)), greater than 32 mg/L; in assay [10] (Non-CP CRE (N = 50)) it was greater than 32 mg/L. The MIC90 in [10] (OXA-48-like (N = 96)) was greater than 32 mg/L.

Turning to `CO/N=C(\C(=O)N[C@@H]1C(=O)N2C(C(=O)O)=C(CSc3nc(=O)c(O)nn3C)CS[C@H]12)c1csc(N)n1` [CRO], the MIC50 in assay [8], in [9], in assay [10] (CRE (N = 507)), in assay [10] (KPC (N = 193)), in assay [10] (MBL (N = 168)) and in assay [10] (Non-CP CRE (N = 50)) was greater than 32 mg/L each time. Also, in assay [10] (OXA-48-like (N = 96)), the MIC50 was greater than 32 mg/L. Besides, the MIC90 in assay [8], in assay [9], in [10] (CRE (N = 507)), in assay [10] (KPC (N = 193)), in [10] (MBL (N = 168)) and in assay [10] (Non-CP CRE (N = 50)) was greater than 32 mg/L throughout. In addition, the MIC90 in [10] (OXA-48-like (N = 96)) was greater than 32 mg/L.

`CC1=C[C@@H]2CN(C(=O)N2OS(=O)(=O)O)[C@@H]1C(N)=O` [Durlobactam, durlobactam]: the Ki at IMP-1 is greater than 160 µM; at VIM-1 it was greater than 160 µM; on CTX-M-14, 0.00037 ± 0.00016 µM; at OXA-23, 0.094 ± 0.032 µM; at CTX-M-15 it was 0.00021 ± 0.00012 µM; at KPC-2, 0.0017 ± 0.0004 µM. The Ki is 0.00017 ± 8e-05 µM at P99 (setting [11]), greater than 160 µM on NDM-1 and 0.00072 ± 0.00027 µM on OXA-48.

A word on the MIC: it is the lowest concentration found to suppress growth. Broadly, the MIC50 is an inhibitory concentration at the 50% level, which refers to growth in some studies and to a panel of isolates in others. The term MIC90 denotes the lowest concentration that inhibits either 90% of growth or 90% of the strains tested, depending on the study.
